Measured values: patent publication US7772180B2, “Hepatitis C virus inhibitors” (Bristol-Myers Squibb Company, priority 2006, dated 2010)

Key:
human liver cathepsin B = molecular target: T1, human liver cathepsin B (Homo sapiens, UniProt P07858); experiment: Specificity assay, cathepsin B; type: biochemical; details: read-out: Cathepsin B activity in the specificity assays (IC50)
T1 construct: purchased Sigma, EMDbiosciences; host or cells: human liver
Procedure: The specificities of compounds of the present disclosure were determined against a variety of serine proteases: human neutrophil elastase (HNE), porcine pancreatic elastase (PPE) and human pancreatic chymotrypsin and one cysteine protease: human liver cathepsin B. In all cases a 96-well plate format protocol using either colorimetric p-nitroaniline (pNA) substrate or fluorometric Amino-Methyl-Coumarin (AMC) specific for each enzyme was used as described previously (PCT Patent Application No. WO 00/09543) with some modifications to the serine protease assays. All enzymes were purchased from Sigma, EMDbiosciences while the substrates were from Bachem, Sigma and EMDbiosciences.
The pNA assay for Chymotrypsin included a 1 h enzyme-inhibitor pre-incubation at room temperature followed by addition of substrate and hydrolysis to ˜15% conversion as measured on a Spectramax Pro microplate reader. Compound concentrations varied from 100 to 0.4 μM depending on their potency. Cathepsin B, HNE, and PPE assays each was initiated by addition of substrate to enzyme-inhibitor pre-incubated for 10 min at room temperature and hydrolysis to 15% conversion as measured on cytofluor. […]
The percentage of inhibition was calculated using the formula: [1−((UVinh−UVblank)/(UVctl−UVblank))]×100 […]

[1] = molecular target: T2, HCV NS3/4A protease complex, J4L6S strain (Hepatitis C virus genotype 1b, UniProt O92972, C1454S/C1711G); experiment: FRET peptide assay to monitor HCV NS3/4A proteolytic activity (J4L6S strain); type: biochemical; details: read-out: IC50 against the NS3/4A J4L6S strain
T2 construct: DNA encoding the recombinant HCV NS3/4A protease complex (amino acids 1027 to 1711) for these strains; made in house; host or cells: Escherichia coli BL21 (DE3), pET21b
T2 sequence (O92972 1027-1711 C1454S/C1711G, one chain of several): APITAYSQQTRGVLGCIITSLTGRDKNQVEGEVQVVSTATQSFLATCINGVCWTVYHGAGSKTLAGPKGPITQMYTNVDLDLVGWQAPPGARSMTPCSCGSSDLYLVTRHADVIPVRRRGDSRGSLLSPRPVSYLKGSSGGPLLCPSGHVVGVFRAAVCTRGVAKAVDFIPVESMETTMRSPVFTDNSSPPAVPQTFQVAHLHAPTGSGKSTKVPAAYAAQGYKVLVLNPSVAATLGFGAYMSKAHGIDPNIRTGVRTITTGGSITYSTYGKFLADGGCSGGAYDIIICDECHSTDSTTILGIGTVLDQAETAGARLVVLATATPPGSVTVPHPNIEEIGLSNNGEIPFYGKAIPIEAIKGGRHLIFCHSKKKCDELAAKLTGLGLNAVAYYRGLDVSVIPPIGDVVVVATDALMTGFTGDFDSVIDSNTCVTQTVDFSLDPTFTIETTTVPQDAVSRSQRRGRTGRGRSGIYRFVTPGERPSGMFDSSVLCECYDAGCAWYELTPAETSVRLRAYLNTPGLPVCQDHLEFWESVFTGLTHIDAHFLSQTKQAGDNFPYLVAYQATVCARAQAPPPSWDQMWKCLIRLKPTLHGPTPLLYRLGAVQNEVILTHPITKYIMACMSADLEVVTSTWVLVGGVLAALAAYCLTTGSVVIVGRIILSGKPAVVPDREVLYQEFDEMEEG
From the text: HCV NS3 protease complexes, derived from the BMS strain, H77 strain or J4L6S strain, were generated, as described below. These purified recombinant proteins were generated for use in a homogeneous assay (see below) to provide an indication of how effective compounds of the present disclosure would be in inhibiting HCV NS3 proteolytic activity.
Serum from an HCV-infected patient was obtained from Dr. T. Wright, San Francisco Hospital. An engineered full-length cDNA (compliment deoxyribonucleic acid) template of the HCV genome (BMS strain) was constructed from DNA fragments obtained by reverse transcription-PCR (RT-PCR) of serum RNA (ribonucleic acid) and using primers selected on the basis of homology between other genotype 1a strains. From the determination of the entire genome sequence, a genotype 1a was assigned to the HCV isolate according to the classification of Simmonds et al. (See P Simmonds, K A Rose, S Graham, S W Chan, F McOmish, B C Dow, E A Follett, P L Yap and H Marsden, J. Clin. Microbiol., 31(6), 1493-1503 (1993)). […]

C=C[C@@H]1C[C@]1(NC(=O)[C@@H]1C[C@@H](Oc2nc(N(C)C)cc3cc(OC)ccc23)CN1C(=O)C(Nc1cc(C)cc(C)n1)C(C)(C)C)C(=O)NS(=O)(=O)C1CC1 (single isomer, unassigned) [Compound 18]
IC50 (human liver cathepsin B): > 50000 nM | IC50 [1]: 0.9 nM
